From patent US20100179203A1, “NOVEL PYRAZOLE DERIVATIVES USEFUL AS POTASSIUM CHANNEL MODULATORS” (priority 2007, published 2010) come the findings set out here.

One data set concerns the target T1, BK channels (Homo sapiens, UniProt Q12791).
T1 construct: expressed in transfected cells; host or cells: Xenopus laevis oocytes
The data set can be described thus: BK channel opening activity, two-electrode voltage clamp in Xenopus laevis oocytes. It is filed as cell-based. Here is the method: In this example the BK channel opening activity of Compound 9 (FIGS. 1A and 1B) is determined using BK channels heterologously expressed in Xenopus laevis oocytes.
The electrical current through the BK channel was measured using conventional two-electrode voltage clamp. BK currents were activated by repeating ramp protocols. In brief, the membrane potential was continuously changed from −120 mV to +120 mV within a 2 s period. The threshold for BK activation is approximately +30 mV under control conditions. Compounds were applied for 100 s during which the ramp protocol was repeated 10 times with 10 s intervals. In between the ramp protocols the membrane potential was clamped at −80 mV. The first three compound applications were control blanks where the current level is allowed to stabilize.
In order to evaluate the ability of the compounds to shift the BK activation curve towards lower membrane potentials, the BK current was transformed into conductance by using Ohm's law […], where g is the conductance, I is the current, Ememb is the membrane potential and Erev is the reversal potential. The extracellular solution for these experiments contained 2.5 mM K+ and the intracellular K+ concentration of an oocyte was estimated to be 100 mM. Under those conditions, Nernst equation predicts a reversal potential of Erev=−93.2 mV. The control conductance level at a membrane potential of +100 mV was calculated, and the compound effect was evaluated as the potential difference, ΔV, to the membrane potential at which the same conductance level was obtained in the presence of compound.
The concentration response curve for this potential difference was fitted to the sigmoidal logistic equation: ΔV=ΔVmax/(1+(EC50/[compound])^n), where ΔVmax represents the maximal left shift of the BK activation curve, EC50 is the concentration causing a half maximal response, and n is the slope coefficient.
(In general: Two-electrode voltage clamp holds a large cell at a set potential and records current.)

T1 sequence (Q12791 whole entry): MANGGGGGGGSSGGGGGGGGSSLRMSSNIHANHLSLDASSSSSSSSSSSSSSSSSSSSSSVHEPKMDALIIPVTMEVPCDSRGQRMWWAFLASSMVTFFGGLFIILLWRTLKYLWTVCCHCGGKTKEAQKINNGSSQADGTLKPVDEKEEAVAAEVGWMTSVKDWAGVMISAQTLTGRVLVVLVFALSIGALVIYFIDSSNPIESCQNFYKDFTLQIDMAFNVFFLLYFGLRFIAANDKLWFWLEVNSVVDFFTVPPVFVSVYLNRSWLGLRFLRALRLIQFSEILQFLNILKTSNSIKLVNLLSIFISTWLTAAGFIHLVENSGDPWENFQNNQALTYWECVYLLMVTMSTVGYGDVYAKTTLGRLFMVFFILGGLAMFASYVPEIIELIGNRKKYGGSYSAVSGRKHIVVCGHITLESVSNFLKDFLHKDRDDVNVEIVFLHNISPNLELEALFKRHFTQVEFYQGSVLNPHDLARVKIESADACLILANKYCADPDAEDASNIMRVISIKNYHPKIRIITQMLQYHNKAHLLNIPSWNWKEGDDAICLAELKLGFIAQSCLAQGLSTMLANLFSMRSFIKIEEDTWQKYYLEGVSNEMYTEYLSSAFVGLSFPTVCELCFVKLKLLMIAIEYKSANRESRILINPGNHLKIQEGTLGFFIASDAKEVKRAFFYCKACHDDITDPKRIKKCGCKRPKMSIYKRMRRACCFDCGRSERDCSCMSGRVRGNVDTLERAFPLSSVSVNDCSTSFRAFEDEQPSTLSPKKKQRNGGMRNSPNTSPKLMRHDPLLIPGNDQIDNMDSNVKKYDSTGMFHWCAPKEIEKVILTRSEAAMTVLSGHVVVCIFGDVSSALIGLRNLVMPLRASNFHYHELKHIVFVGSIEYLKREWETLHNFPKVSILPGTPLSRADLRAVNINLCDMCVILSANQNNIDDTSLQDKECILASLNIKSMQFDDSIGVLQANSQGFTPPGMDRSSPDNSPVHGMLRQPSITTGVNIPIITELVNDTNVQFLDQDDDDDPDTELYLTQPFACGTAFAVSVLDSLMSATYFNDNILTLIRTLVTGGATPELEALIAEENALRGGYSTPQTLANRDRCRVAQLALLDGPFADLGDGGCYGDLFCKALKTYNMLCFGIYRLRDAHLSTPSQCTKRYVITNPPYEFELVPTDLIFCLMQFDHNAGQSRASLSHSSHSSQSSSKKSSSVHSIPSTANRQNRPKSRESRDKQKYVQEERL

Turning to `COc1ccc(-n2cc(/C=C/c3nnn[nH]3)c(-c3ccc(Cl)c(F)c3)n2)cc1Cl` [Compound 5, 5-{(E)-2-[3-(4-Chloro-3-fluorophenyl)-1-(3-chloro-4-methoxy-phenyl)-1H-pyrazol-4-yl]-vinyl}-1H-tetrazole], the melting point (as a rule, the temperature of the solid-liquid transition) lay within 128.4 to 130 °C. For `COc1ccc(-n2cc(/C=C(\C#N)C(=O)O)c(-c3ccc(Cl)c(F)c3)n2)cc1Cl` [Compound 14, (E)-3-[3-(4-Chloro-3-fluoro-phenyl)-1-(3-chloro-4-methoxy-phenyl)-1H-pyrazol-4-yl]-2-cyano-acrylic acid], the melting point lay within 282.8 to 284.2 °C. `COc1ccc(-n2cc(CC(=O)NS(C)(=O)=O)c(-c3ccc(Cl)c(F)c3)n2)cc1Cl` [Compound 18, N-{2-[3-(4-Chloro-3-fluorophenyl)-1-(3-chloro-4-methoxy-phenyl)-1H-pyrazol-4-yl]-acetyl}-methanesulfonamide] displayed a melting point of 216.8 to 218.2 °C. Turning to `COc1ccc(-n2cc(/C=C/C(=O)NS(C)(=O)=O)c(-c3ccc(Cl)c(F)c3)n2)cc1Cl` [Compound 6, N-{(E)-3-[3-(4-Chloro-3-fluoro-phenyl)-1-(3-chloro-4-methoxy-phenyl)-1H-pyrazol-4-yl]-acryloyl}-methanesulfonamide], the melting point lay in the range of 269.3 to 270.5 °C. Regarding `O=c1[nH]c(Cc2cn(-c3cc(C(F)(F)F)cc(C(F)(F)F)c3)nc2-c2cccc(Cl)c2)no1` [Compound 17, 3-[1-(3,5-Bis-trifluoromethyl-phenyl)-3-(3-chloro-phenyl)-1H-pyrazol-4-ylmethyl]-4H-[1,2,4]oxadiazol-5-one], the melting point lay in the range of 200 to 201 °C.

In turn, `COc1ccc(-n2cc(/C=C/C(=O)O)c(-c3ccc(Cl)c(F)c3)n2)cc1Cl` [Compound 3, (E)-3-[3-(4-Chloro-3-fluoro-phenyl)-1-(3-chloro-4-methoxy-phenyl)-1H-pyrazol-4-yl]-acrylic acid] registered a melting point of 240.2 to 241.3 °C. In the case of `Clc1ccc(-c2nn(-c3ccc(Br)cc3)cc2CCc2nnn[nH]2)cc1` [Compound 9, 5-{2-[1-(4-Bromo-phenyl)-3-(4-chloro-phenyl)-1H-pyrazol-4-yl]-ethyl}-1H-tetrazole], the EC50 on BK channels (BK channels heterologously expressed in Xenopus laevis oocytes, ramp -120 to +120 mV, 0.01-31.6 μM, fit of ΔV vs concentration, read-out: EC50 for the left-shift of the BK activation curve) was determined as 1400 nM. For the same compound, at BK channels (BK channels heterologously expressed in Xenopus laevis oocytes, ΔV referred to control conductance at +100 mV, 0.01-31.6 μM), the “ΔVmax, maximal left shift of the BK activation curve” value is on record as −96 mV. Also, the “BK current level at depolarizing potentials” value on BK channels (increasing concentrations (0.01-31.6 μM) applied, Xenopus laevis oocytes) is listed as “marked increase in the current level”.
